Assay results as given in patent publication US20020082420A1, “Bicyclic heterocycles, pharmaceutical compositions containing them, their use, and processes for preparing them” (priority 2000, published 2002).

Legend:
human EGF-R = molecular target: T1, human EGF-R (Homo sapiens, UniProt P00533); assay: Inhibition of EGF-dependent proliferation of F/L-HERc cells (Cell Titer 96 assay); assay type: cell-based; details: F/L-HERc cells (murine IL-3-dependent line expressing human EGF-R), stimulated with EGF 20 ng/ml, 48 hours at 37° C.
T1 construct: expressed in transfected cells; host or cells: F/L-HERc cells (murine IL-3-dependent FDC-P1 line transduced with an LXSN retroviral vector carrying human EGF-R cDNA; packaging line GP+E86)
Source text: A cell line of murine origin dependent on interleukin-3-(IL-3) which was genetically modified to express functional human EGF-R was used here. The proliferation of these cells known as F/L-HERc can therefore be stimulated either by murine IL-3 or by EGF (cf T. von Ruiden et al., EMBO J. 7, 2749-2756 (1988) and J. H. Pierce et al., Science 239, 628-631 (1988)).
The starting material used for the F/L-HERc cells was the cell line FDC-P1, the production of which has been described by T. M. Dexter et al., J. Exp. Med. 152. 1036-1047 (1980). Alternatively, however, other growth-factor-dependent cells may also be used (cf., e.g., J.H. Pierce et al., Science 239, 628-631 (1988); H. Shibuya et al., Cell 70, 57-67 (1992); and W. S. Alexander et al., EMBO J. 10, 3683-3691 (1991)). For expressing the human EGF-R cDNA (cf A. Ullrich et al., Nature 309, 418-425 (1984)) recombinant retroviruses were used as described by T. von Ruiden et al., EMBO J. 7, 2749-2756 (1988), except that the retroviral vector LXSN (cf A. D. Miller et al., BioTechniques 7, 980-990 (1989)) was used for the expression of the EGF-R cDNA and the line GP+E86 (cf D. Markowitz et al., J. Virol. 62, 1120-1124 (1988)) was used as the packaging cell.
The test was performed as follows:
F/L-HERc cells were cultivated in RPMI/1640 medium (BioWhittaker), supplemented with 10% fetal calf serum (FCS, Boehringer Mannheim), 2 mM glutamine (BioWhittaker), standard antibiotics and 20 ng/ml of human EGF (Promega), at 37° C. and 5% CO2. In order to investigate the inhibitory activity of the compounds according to the invention, 1.5×10^4 cells per well were cultivated in triplicate in 96-well plates in the above medium (200 μl), the cell proliferation being stimulated with either EGF (20 ng/ml) or murine IL-3. The IL-3 used was obtained from culture supernatants of the cell line X63/0 mIL-3 (cf H. Karasuyama et al., Eur. J. Immunol. 18, 97-104 (1988)). The compounds according to the invention were dissolved in 100% dimethylsulfoxide (DMSO) and added to the cultures in various dilutions, the maximum DMSO concentration being 1%. The cultures were incubated for 48 hours at 37° C.
In order to determine the inhibitory activity of the compounds according to the invention the relative cell number was measured in O.D. units using the Cell Titer 96™ Aqueous Non-Radioactive Cell Proliferation Assay (Promega). The relative cell number was calculated as a percentage of the control (F/LHERc cells without inhibitor) and the concentration of active substance which inhibits the proliferation of the cells by 50% (IC50) was derived therefrom.

T1 sequence (P00533 25-1210): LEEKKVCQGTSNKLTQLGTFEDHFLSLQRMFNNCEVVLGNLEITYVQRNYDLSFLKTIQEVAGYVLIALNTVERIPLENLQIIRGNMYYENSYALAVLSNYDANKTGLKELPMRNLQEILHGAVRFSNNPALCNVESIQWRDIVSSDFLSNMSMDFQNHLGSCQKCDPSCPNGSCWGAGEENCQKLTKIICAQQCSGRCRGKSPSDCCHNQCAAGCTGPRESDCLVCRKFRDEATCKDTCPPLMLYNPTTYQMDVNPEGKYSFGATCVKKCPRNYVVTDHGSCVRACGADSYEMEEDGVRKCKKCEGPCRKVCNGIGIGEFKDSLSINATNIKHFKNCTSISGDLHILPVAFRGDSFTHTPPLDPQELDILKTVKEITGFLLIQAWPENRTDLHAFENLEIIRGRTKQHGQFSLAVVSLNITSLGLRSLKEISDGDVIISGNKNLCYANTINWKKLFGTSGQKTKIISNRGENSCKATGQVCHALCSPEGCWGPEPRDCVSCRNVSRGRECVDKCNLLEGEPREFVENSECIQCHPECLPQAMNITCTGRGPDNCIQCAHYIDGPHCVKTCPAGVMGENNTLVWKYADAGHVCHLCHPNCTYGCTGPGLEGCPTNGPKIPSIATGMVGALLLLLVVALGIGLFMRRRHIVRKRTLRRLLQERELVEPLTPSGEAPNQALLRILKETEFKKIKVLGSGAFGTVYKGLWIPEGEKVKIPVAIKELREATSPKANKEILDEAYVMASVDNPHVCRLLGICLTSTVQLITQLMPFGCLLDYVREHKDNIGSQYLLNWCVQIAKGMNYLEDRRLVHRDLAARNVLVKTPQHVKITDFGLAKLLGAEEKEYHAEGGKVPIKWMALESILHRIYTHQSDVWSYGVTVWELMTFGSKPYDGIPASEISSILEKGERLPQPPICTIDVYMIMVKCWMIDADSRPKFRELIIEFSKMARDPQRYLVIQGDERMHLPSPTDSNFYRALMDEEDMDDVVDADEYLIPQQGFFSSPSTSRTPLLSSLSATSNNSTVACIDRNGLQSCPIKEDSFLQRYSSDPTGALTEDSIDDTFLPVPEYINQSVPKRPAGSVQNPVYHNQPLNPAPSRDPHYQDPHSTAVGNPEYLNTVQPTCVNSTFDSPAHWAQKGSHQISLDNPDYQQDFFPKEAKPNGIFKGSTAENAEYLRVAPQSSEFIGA

IC50 (human EGF-R) [µM]	melting point	Structure (SMILES)
0.32	220 to 228 °C	CN(CC(=O)O)[C@H]1CC[C@H](Nc2ncc3ncnc(Nc4ccc(F)c(Cl)c4)c3n2)CC1 [1(3), 4-[(3-chloro-4-fluorophenyl)amino]-6-({trans-4-[N-(carboxymethyl)-N-methylamino]cyclohex-1-yl}amino)pyrimido[5,4-d]pyrimidine]
1.45	213 °C (dec.)	O=C(O)CCN1CCC(N2CCN(c3ncc4ncnc(Nc5ccc(F)c(Cl)c5)c4n3)CC2)CC1 [1(8), 4-[(3-chloro-4-fluorophenyl)amino]-6-{4-[1-(2-carboxyethyl)piperidin-4-yl]piperazin-1-yl}pyrimido[5,4-d]pyrimidine]
0.82	246 to 249 °C (dec.)	O=C(O)CN1CCC(CCNc2ncc3ncnc(Nc4ccc(F)c(Cl)c4)c3n2)CC1 [1(9), 4-[(3-chloro-4-fluorophenyl)amino]-6-{2-[1-(carboxymethyl)piperidin-4-yl]ethylamino}pyrimido[5,4-d]pyrimidine]
2.51	190 °C (dec.)	O=C(O)C1CCN(CCNc2ncc3ncnc(Nc4ccc(F)c(Cl)c4)c3n2)CC1 [1(10), 4-[(3-chloro-4-fluorophenyl)amino]-6-[2-(4-carboxypiperidin-1-yl)ethylamino]pyrimido [5,4-d]pyrimidine]
2.32	139 to 165 °C (dec.)	CN(CCC(=O)O)C1CCN(c2ncc3ncnc(Nc4ccc(F)c(Cl)c4)c3n2)CC1 [1(11), 4-[(3-chloro-4-fluorophenyl)amino]-6-[4-[N-(2-carboxyethyl)-N-methylamino]piperidin-1-yl]pyrimido[5,4-d]pyrimidine]
0.015	162 to 164 °C	COC(=O)CN1CCC(Nc2ncc3ncnc(Nc4ccc(F)c(Cl)c4)c3n2)CC1 [2(1), 4-[(3-chloro-4-fluorophenyl)amino]-6-({1-[(methoxycarbonyl)methyl]piperidin-4-yl}amino)pyrimido [5,4-d]pyrimidine]
0.06	131 to 134 °C	COC(=O)CN(C)[C@H]1CC[C@H](Nc2ncc3ncnc(Nc4ccc(F)c(Cl)c4)c3n2)CC1 [2(7), 4-[(3-chloro-4-fluorophenyl)amino]-6-[(trans-4-{N-[(methoxycarbonyl)methyl]-N-methylamino}cyclohex-1-yl)amino]pyrimido[5,4-d]pyrimidine]
2.04	179 to 182 °C	CCOC(=O)CN1CCN(c2ncc3ncnc(Nc4ccc(F)c(Cl)c4)c3n2)CC1 [2(10), 4-[(3-chloro-4-fluorophenyl)amino]-6-[4-[(ethoxycarbonyl)methyl]piperazin-1-yl]pyrimido[5,4-d]pyrimidine]
0.81		CCOC(=O)CCN1CCC(N2CCN(c3ncc4ncnc(Nc5ccc(F)c(Cl)c5)c4n3)CC2)CC1 [2(12), 4-[(3-chloro-4-fluorophenyl)amino]-6-(4-{1-[2-(ethoxycarbonyl)ethyl]piperidin-4-yl}piperazin-1-yl)pyrimido[5,4-d]pyrimidine]
1.03	128 to 130 °C	CCOC(=O)CN1CCC(CCNc2ncc3ncnc(Nc4ccc(F)c(Cl)c4)c3n2)CC1 [2(13), 4-[(3-chloro-4-fluorophenyl)amino]-6-(2-{1-[(ethoxycarbonyl)methyl]piperidin-4-yl}ethylamino)pyrimido[5,4-d]pyrimidine]
1.76		COC(=O)CCN(C)C1CCN(c2ncc3ncnc(Nc4ccc(F)c(Cl)c4)c3n2)CC1 [2(15), 4-[(3-chloro-4-fluorophenyl)amino]-6-(4-{N-[2-(methoxycarbonyl)ethyl]-N-methylamino}piperidin-1-yl)pyrimido[5,4-d]pyrimidine]
0.129		COC(=O)CN(C)CC1CCN(c2ncc3ncnc(Nc4ccc(F)c(Cl)c4)c3n2)CC1 [2(19), 4-[(3-chloro-4-fluorophenyl)amino]-6-[4-({N-[(methoxycarbonyl)methyl]-N-methylamino}methyl)piperidin-1-yl]pyrimido[5,4-d]pyrimidine]
0.058		CCOC(=O)CN(CC(=O)OCC)[C@H]1CC[C@H](Nc2ncc3ncnc(Nc4ccc(F)c(Cl)c4)c3n2)CC1 [3(4), 4-[(3-chloro-4-fluorophenyl)amino]-6-[(trans-4-{N,N-bis-[(ethoxycarbonyl)methyl]amino}cyclohex-1-yl)amino]pyrimido[5,4-d]pyrimidine]
0.02		COC(=O)CN(CC(=O)OC)[C@H]1CC[C@H](Nc2ncc3ncnc(Nc4ccc(F)c(Cl)c4)c3n2)CC1 [3(5), 4-[(3-chloro-4-fluorophenyl)amino]-6-[(trans-4-{N,N-bis-[(methoxycarbonyl)methyl]amino}cyclohex-1-yl)amino]pyrimido [5,4-d]pyrimidine]
0.016		COC(=O)CN[C@H]1CC[C@H](Nc2ncc3ncnc(Nc4ccc(F)c(Cl)c4)c3n2)CC1 [3(10), 4-[(3-chloro-4-fluorophenyl)amino]-6-[(trans-4-{[(methoxycarbonyl)methyl]amino}cyclohex-1-yl)amino]pyrimido[5,4-d]pyrimidine]
0.02		COC(=O)C(C(=O)OC)N1CCC(Nc2ncc3ncnc(Nc4cccc(Br)c4)c3n2)CC1 [3(16)]
0.017		COC(=O)CN1CCCC(Nc2ncc3ncnc(Nc4cccc(Br)c4)c3n2)C1 (stereo not shown) [3(17), 4-[(3-bromophenyl)amino]-6-({1-[(methoxycarbonyl)methyl]piperidin-3-yl}amino)pyrimido[5,4-d]pyrimidine]
0.04		COC(=O)C(C(=O)OC)N1CCC(Nc2ncc3ncnc(Nc4ccc(F)c(Cl)c4)c3n2)CC1 [3(18)]
	151 to 154 °C	COC(=O)C1CCCN1CC1CCN(c2ncc3ncnc(Nc4ccc(F)c(Cl)c4)c3n2)CC1 (stereo not shown) [Example 2(21), 4-[(3-chloro-4-fluorophenyl)amino]-6-(4-{[2-(methoxycarbonyl)pyrrolidin 1-yl]methyl}piperidin-1-yl)pyrimido[5,4-d]pyrimidine]
	145 to 149 °C	CCOC(=O)CN1CCN(CC2CCN(c3ncc4ncnc(Nc5ccc(F)c(Cl)c5)c4n3)CC2)CC1 [Example 2(22), 4-[(3-chloro-4-fluorophenyl)amino]-6-[4-({4-[(ethoxycarbonyl)methyl]piperazin-1-yl}methyl)piperidin-1-yl]pyrimido[5,4-d]pyrimidine]
	136 to 138 °C	CCOC(=O)CN1CCC(Nc2ncc3ncnc(Nc4ccc(F)c(Cl)c4)c3n2)CC1 [Example 2, 4-[(3-chloro-4-fluorophenyl)amino]-6-({1-[(ethoxycarbonyl)methyl]piperidin-4-yl}amino)pyrimido[5,4-d]pyrimidine]
	134 to 135 °C	COC(=O)CCNC1(C)CCN(c2ncc3ncnc(Nc4ccc(F)c(Cl)c4)c3n2)CC1 [Example 6(3), 4-[(3-chloro-4-fluorophenyl)amino]-6-{4-methyl-4-[2-(methoxycarbonyl)ethyl]aminopiperidin-1-yl}pyrimido[5,4-d]pyrimidine]
	132 °C	CCOC(=O)CC(CC(=O)OCC)N1CCC(Nc2ncc3ncnc(Nc4cccc(Br)c4)c3n2)CC1 [Example 6(5), 4-[(3-bromophenyl)amino]-6-[(1-{1-[(ethoxycarbonyl)methyl]-2-(ethoxycarbonyl)ethyl}piperidin-4-yl)amino]pyrimido-[5,4-d]pyrimidine]

Structure (SMILES)	IC50 (human EGF-R) [µM]	melting point
CCOP(=O)(CN1CCC(Nc2ncc3ncnc(Nc4cccc(Br)c4)c3n2)CC1)OCC [4(1), 4-[(3-bromophenyl)amino]-6-({1-[(diethoxyphosphoryl)methyl]piperidin-4-yl}amino)pyrimido[5,4-d]pyrimidine]	0.04	
CCOP(C)(=O)CN1CCC(Nc2ncc3ncnc(Nc4cccc(Br)c4)c3n2)CC1 (stereo not shown) [4(2), 4-[(3-bromophenyl)amino]-6-[(1-{[(ethoxy)(methyl)phosphoryl]methyl}piperidin-4-yl)amino]pyrimido [5,4-d]pyrimidine]	0.04	
